For one assay, the target named is T1, DGKζ (Homo sapiens, UniProt Q13574).
T1 construct: His; purchased Signal Chem D30-10H
Put plainly: In vitro DGKζ inhibition assay (ADP-Glo). The class given is biochemical. The note with it: His-tagged human recombinant enzyme, 0.4 nM DGKζ, 30 μM ATP, 20 μM DLG, 90 minute incubation. As to the method:
(§1) The DGKα and DGKζ biochemical reactions were performed using His-tagged human recombinant enzymes (Signal Chem, DGKα, #D21-10BH; DGKζ, #D30-10H)) and DLG (Dilauroyl-sn-glycerol) lipid substrate (Signal Chem, #D430-59). ADP-Glo assay was performed using ADP-Glo™ kinase Assay kit (Promega, #V9104). The reactions were carried out in assay buffer containing 40 mM Tris, pH 7.5, 0.1% CHAPS, 0.1% Prionex, 40 mM NaCl, 5 mM MgCl2, 1 mM CaCl2, and 1 mM DTT. DGKα reactions contained 0.1 nM DGKα, 50 μM ATP, and 20 μM DLG. And DGKζ reactions contained 0.4 nM DGKζ, 30 μM ATP, and 20 μM DLG.
(§2) For compound inhibition studies, 40 nL test compound in DMSO was added to wells of white polystyrene plates in 384-well (Greiner, #784075) or 1536-well format (Greiner, #782075). Compounds were added with top concentration of 2 mM with 11 point, 3-fold dilution series. Enzyme solution (contains 2× DGK enzyme concentration in 1× assay buffer) was added to the plate in 2 μL/well volume, followed by 2 μL/well of substrate solution (contains 2× concentration of ATP and DLG substrate in 1× assay buffer). Plates were then centrifuged for 1 min at 1200 RPM and sealed or lidded. For 4 μL reaction volume, test compounds were therefore diluted 100× to final top concentration of 20 μM. After 90 minute incubation, reactions were quenched by addition of 2 μL/well Promega ADP-Glo Reagent, followed by centrifugation and lidding. After 60 min incubation, 2 μL/well Promega Kinase Detection Reagent was added, plates centrifuged, and incubated for 30 min. Plates were then read using Luminescence method on BMG PHERAstar FSX plate reader. Percent inhibition was calculated and IC50s were determined using 4-parameter fit in Genedata Screener. Labcyte Echo acoustic dispenser was used for compound addition, and Formulatrix Tempest liquid handler was used for all reagent dispenses.
(In general: ADP-Glo first removes unused ATP, then detects ADP through luciferase.)

A further assay has as its target T2, DGKα (Homo sapiens, UniProt P23743).
T2 construct: His; purchased Signal Chem D21-10BH
Put plainly: In vitro DGKα inhibition assay (ADP-Glo). The class given is biochemical. The note with it: His-tagged human recombinant enzyme, 0.1 nM DGKα, 50 μM ATP, 20 μM DLG, 90 minute incubation. As for the experimental part:
as §1, §2

SMILES strings stand for the structures.

T2 sequence (P23743 whole entry): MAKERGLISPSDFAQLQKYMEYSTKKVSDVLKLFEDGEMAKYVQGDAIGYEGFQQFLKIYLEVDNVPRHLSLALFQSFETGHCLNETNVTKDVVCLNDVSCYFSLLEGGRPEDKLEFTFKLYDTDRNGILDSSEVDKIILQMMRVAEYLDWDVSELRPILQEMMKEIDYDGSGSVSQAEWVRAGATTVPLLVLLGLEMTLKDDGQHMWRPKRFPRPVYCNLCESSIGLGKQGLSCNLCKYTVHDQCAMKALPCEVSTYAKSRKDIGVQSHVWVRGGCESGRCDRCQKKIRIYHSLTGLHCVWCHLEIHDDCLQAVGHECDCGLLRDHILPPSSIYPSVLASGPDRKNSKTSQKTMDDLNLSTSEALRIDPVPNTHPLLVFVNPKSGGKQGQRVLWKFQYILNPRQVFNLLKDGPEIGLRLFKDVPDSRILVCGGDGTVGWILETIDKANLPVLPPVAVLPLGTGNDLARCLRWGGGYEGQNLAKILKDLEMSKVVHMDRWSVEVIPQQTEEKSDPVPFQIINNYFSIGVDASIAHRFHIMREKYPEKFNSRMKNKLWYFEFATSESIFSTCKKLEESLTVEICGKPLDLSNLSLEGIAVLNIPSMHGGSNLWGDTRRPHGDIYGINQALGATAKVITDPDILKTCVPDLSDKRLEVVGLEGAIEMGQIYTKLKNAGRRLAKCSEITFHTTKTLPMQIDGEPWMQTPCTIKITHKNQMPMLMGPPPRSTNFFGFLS
T1 sequence (Q13574 whole entry): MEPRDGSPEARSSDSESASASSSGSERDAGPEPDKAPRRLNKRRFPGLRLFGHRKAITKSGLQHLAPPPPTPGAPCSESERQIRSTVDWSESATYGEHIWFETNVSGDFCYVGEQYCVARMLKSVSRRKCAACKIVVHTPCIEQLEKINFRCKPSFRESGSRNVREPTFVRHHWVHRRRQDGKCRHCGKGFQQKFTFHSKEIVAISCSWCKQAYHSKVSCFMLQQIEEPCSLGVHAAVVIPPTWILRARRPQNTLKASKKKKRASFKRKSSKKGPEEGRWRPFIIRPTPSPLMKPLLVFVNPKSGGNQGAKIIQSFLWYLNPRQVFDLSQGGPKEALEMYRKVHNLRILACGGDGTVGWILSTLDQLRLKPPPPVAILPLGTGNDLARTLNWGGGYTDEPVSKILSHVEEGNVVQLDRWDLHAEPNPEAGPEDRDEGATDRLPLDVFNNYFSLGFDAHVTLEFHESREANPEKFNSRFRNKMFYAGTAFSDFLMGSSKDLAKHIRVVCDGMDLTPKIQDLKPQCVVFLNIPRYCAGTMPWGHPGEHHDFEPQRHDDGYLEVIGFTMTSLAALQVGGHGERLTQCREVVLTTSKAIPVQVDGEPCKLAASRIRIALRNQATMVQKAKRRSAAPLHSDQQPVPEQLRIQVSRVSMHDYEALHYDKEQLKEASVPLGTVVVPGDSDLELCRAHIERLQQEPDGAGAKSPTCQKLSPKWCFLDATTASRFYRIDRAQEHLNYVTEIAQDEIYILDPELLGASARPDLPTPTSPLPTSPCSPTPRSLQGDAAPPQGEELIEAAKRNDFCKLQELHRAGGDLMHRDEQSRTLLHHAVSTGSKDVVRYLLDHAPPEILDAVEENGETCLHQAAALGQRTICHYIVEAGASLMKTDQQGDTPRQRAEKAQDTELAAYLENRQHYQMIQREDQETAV

Usually IC50 stands for the concentration that inhibits the measured activity by half. Regarding `CC[C@H]1CN(C(c2ccc(F)cc2)c2ccc(F)cc2)[C@H](CC)CN1c1nc2nncn2c2ccc(C)nc12` [Example 1, 5-((2S,5R)-4-(Bis(4-fluorophenyl)methyl)-2,5-diethylpiperazin-1-yl)-7-methylpyrido[2,3-e][1,2,4]triazolo[4,3-a]pyrimidine], the IC50 on DGKζ and at DGKα was not above 20 nM each time.
As for `CC[C@@H]1CN(c2nc3nncn3c3cccnc23)[C@@H](C)CN1C(C(=O)OC)c1ccc(F)cc1` (single isomer, unassigned) [Example 12], the IC50 is 20 to 200 nM at DGKζ and not above 20 nM at DGKα.
On to `CC[C@@H]1CN(c2nc3nncn3c3cccnc23)[C@@H](C)CN1Cc1cccc2ccccc12` [Example 11, 5-((2S,5R)-5-Ethyl-2-methyl-4-(naphthalen-1-ylmethyl)piperazin-1-yl)pyrido[2,3-e][1,2,4]triazolo[4,3-a]pyrimidine], for which the IC50 on DGKζ and at DGKα was not above 20 nM throughout.
As to `CC[C@@H]1CN(c2nc3nncn3c3cccnc23)[C@@H](C)CN1C(c1ccc(F)cc1)c1nc(C2CC2)no1` (mixture of isomers) [Example 9, 3-Cyclopropyl-5-(((2R,5S)-2-ethyl-5-methyl-4-(pyrido[2,3-e][1,2,4]triazolo[4,3-a]pyrimidin-5-yl)piperazin-1-yl)(4-fluorophenyl)methyl)-1,2,4-oxadiazole], the IC50 on DGKζ was 20 to 200 nM; at DGKα, not above 20 nM.
Turning to `CC[C@@H]1CN(c2nc3nncn3c3cccnc23)[C@@H](C)CN1C(c1ccc(F)cc1)C(C)(C)O` (single isomer, unassigned) [Example 14], the IC50 at DGKζ was 200 to 2000 nM; on DGKα, not above 20 nM.
In the case of `CC[C@H]1CN(C(c2ccc(F)cc2)c2ccc(F)cc2)[C@H](CC)CN1c1nc2nnc(C)n2c2cccnc12` [Example 3, 5-((2S,5R)-4-(Bis(4-fluorophenyl)methyl)-2,5-diethylpiperazin-1-yl)-1-methylpyrido[2,3-e][1,2,4]triazolo[4,3-a]pyrimidine], the half-inhibitory concentration (IC50) on DGKζ and at DGKα was not above 20 nM in each case.
Regarding `CC[C@H]1CN(C(c2ccc(F)cc2)c2ccc(F)cc2)[C@H](CC)CN1c1cc2nncn2c2cccnc12` [Example 7, 5-((2S,5R)-4-(Bis(4-fluorophenyl)methyl)-2,5-diethylpiperazin-1-yl)-[1,2,4]triazolo[4,3-a][1,5]naphthyridine], the results for the IC50 on DGKζ and on DGKα were 20 to 200 nM and not above 20 nM, respectively.
On to `CC[C@@H]1CN(c2nc3nncn3c3nccnc23)[C@@H](C)CN1C(c1ccc(F)cc1)c1ccc(F)cc1` [Example 8, 5-((2S,5R)-4-(Bis(4-fluorophenyl)methyl)-5-ethyl-2-methylpiperazin-1-yl)-[1,2,4]triazolo[4,3-a]pteridine], for which the IC50 on DGKζ and at DGKα was not above 20 nM each time.
With `CC[C@H]1CN(C(c2ccc(F)cc2)c2ccc(F)cc2)[C@H](CC)CN1c1nc2nncn2c2cc(-c3cnn(C)c3)cnc12` [Example 6, 5-((2S,5R)-4-(Bis(4-fluorophenyl)methyl)-2,5-diethylpiperazin-1-yl)-8-(1-methyl-1H-pyrazol-4-yl)pyrido[2,3-e][1,2,4]triazolo[4,3-a]pyrimidine], the IC50 at DGKζ is more than 2000 nM; on DGKα, not above 20 nM.
Turning to `CC[C@H]1CN(C(c2ccc(F)cc2)c2ccc(F)cc2)[C@H](CC)CN1c1nc2nncn2c2ccc(C#N)nc12` [Example 5, 5-((2S,5R)-4-(Bis(4-fluorophenyl)methyl)-2,5-diethylpiperazin-1-yl)pyrido[2,3-e][1,2,4]triazolo[4,3-a]pyrimidine-7-carbonitrile], the IC50 on DGKζ and on DGKα was not above 20 nM in each case.
`CC[C@@H]1CN(c2nc3nncn3c3cccnc23)[C@@H](C)CN1C(c1ccc(F)cc1)C(C)(C)O` (single isomer, unassigned) [Example 15]: the IC50 on DGKζ and on DGKα was 20 to 200 nM each time.
In the case of `CC[C@@H]1CN(c2nc3nncn3c3cccnc23)[C@@H](C)CN1Cc1ccc2cc(F)ccc2n1` [Example 10, 5-((2S,5R)-5-Ethyl-4-((6-fluoroquinolin-2-yl)methyl)-2-methylpiperazin-1-yl)pyrido[2,3-e][1,2,4]triazolo[4,3-a]pyrimidine], the IC50 is 20 to 200 nM at DGKζ and not above 20 nM on DGKα.
For the compound `CC[C@H]1CN(C(c2ccc(F)cc2)c2ccc(F)cc2)[C@H](CC)CN1c1nc2nncn2c2nccnc12` [Example 4, 5-((2S,5R)-4-(Bis(4-fluorophenyl)methyl)-2,5-diethylpiperazin-1-yl)-[1,2,4]triazolo[4,3-a]pteridine], the IC50 on DGKζ and on DGKα was not above 20 nM throughout.
For the compound `CC[C@@H]1CN(c2nc3nncn3c3cccnc23)[C@@H](C)CN1C(C(=O)OC)c1ccc(F)cc1` (single isomer, unassigned) [Example 13], the values for the IC50 on DGKζ and at DGKα were 20 to 200 nM and not above 20 nM, respectively.
As to `CC[C@H]1CN(C(c2ccc(F)cc2)c2ccc(F)cc2)[C@H](CC)CN1c1nc2nncn2c2cccnc12` [Example 2, 5-((2S,5R)-4-(Bis(4-fluorophenyl)methyl)-2,5-diethylpiperazin-1-yl)pyrido[2,3-e][1,2,4]triazolo[4,3-a]pyrimidine], the half-maximal inhibitory concentration (IC50) on DGKζ and at DGKα was not above 20 nM throughout.

For the origin of these results see patent publication US20240083898A1, “TRICYCLIC TRIAZOLO COMPOUNDS AS DGK INHIBITORS” (Incyte Corporation, priority 2022, published 2024).
